# Target: T1, hDGAT1 (Homo sapiens, UniProt O75907)
# T1 construct: made in house; host or cells: Sf9 insect cells (baculovirus); microsomal fraction
# T1 sequence (O75907 1-488): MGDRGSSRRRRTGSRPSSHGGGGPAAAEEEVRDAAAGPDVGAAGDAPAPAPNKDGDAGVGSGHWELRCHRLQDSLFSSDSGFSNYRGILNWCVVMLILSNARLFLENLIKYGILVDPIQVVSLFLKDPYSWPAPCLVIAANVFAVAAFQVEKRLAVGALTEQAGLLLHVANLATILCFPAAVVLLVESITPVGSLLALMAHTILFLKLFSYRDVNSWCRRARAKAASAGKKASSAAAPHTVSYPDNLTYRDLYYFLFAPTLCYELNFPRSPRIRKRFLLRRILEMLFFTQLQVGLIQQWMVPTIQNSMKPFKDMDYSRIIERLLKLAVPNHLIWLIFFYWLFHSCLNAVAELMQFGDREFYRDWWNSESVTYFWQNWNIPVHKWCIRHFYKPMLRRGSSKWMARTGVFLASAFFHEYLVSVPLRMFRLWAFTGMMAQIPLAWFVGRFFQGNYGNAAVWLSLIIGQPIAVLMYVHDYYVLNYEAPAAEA
# Assay: In-vitro DGAT1 assay with hDGAT1 microsomes from Sf9 cells (14C oleoyl CoA, scintillation counting)
# Format: biochemical
# Conditions: at 1 μM
# Description: Sf9 cells were grown in T25 flasks containing Graces's Insect media with 10% FBS with antibiotic (100 units/mL penicillin, 100 μg/mL streptomycin sulphate, 0.25 μg/mL Amptotericin B as Fungizone) grown in a 27° C. incubator.
# hDGAT10RF expression clone (RZPDo839C09146 in pDEST vector) was obtained from RZPD, German Science Center for Genomes research, Germany. hDGAT1 bacmid DNA was obtained by transformation of the hDGAT1 expression clone into DH10Bac E. coli competent cells. Approximately 1 μg of hDGAT1 bacmid DNA was infected into Sf9 cells with Cellfectin (Invitrogen) reagent. Following infection, Sf9 cells were incubated at 27° C. for 30 min. Five hours after infection, the media was replaced with growth media containing antibiotics (100 units/mL penicillin, 100 μg/mL streptomycin sulphate, 0.25 μg/mL Amptotericin B as Fungizone) and incubated at 27° C. for 72 h. The supernatant containing the virus was centrifuged at 1500×g for 5 min, passed through 0.22 μm filter, and subsequently stored at 4° C. The virus was further amplified three more times by re-infection of Sf9 cells and the viral titer was determined by plaque assay.
# Sf9 cells were seeded in spinner flasks on day 0 at a cell density of 1×10^6 and infected on day 1 with hDGAT1 baculovirus at a multiplicity of infection (MOI) of 5 and a cell density of 2×10^6. On day 3 (or 66-72 h), cells were harvested and centrifuged at 2500×g for 10 min. Pellet was resuspended in lysis buffer (100 mM sucrose, 50 mM KCl, 40 mM KH2PO4, 30 mM EDTA, pH 7.2) and passed through 21-gauge needle approximately 10 times. The mixture was centrifuged at 12,000 rpm in a Sigma 12158-H rotor at 4° C. for 30 min. The supernatant was subjected to centrifugation at 35,000 rpm in a Beckman Ti-45 rotor at 4° C. for 1 h. The resultant pellet containing the microsomes wasere resuspended overnight in 1 mL of lysis buffer and total protein concentration was estimated using Bradford Reagent. Microsomes were aliquoted and stored at −80° C.
# Frozen aliquots of hDGAT1 containing microsomes were thawed (5-10 mg/mL total protein) on ice and diluted to a working stock of 1 mg/mL with DGAT Assay Buffer (DAB). The DGAT reaction assay was performed by following the procedure described in U.S. Pat. No. 6,607,893 with some modifications that are described below.
# 1 mL stock solution of DGAT1 substrate mixture contains 5.6 μL of ^14C oleoyl CoA (16.8 nCi) and […] of 1,2-dioleoyl-sn-glycerol (1228.5 μM) 1,2-dioleoyl-sn-glycerol stock (19.5 mM) was prepared by dissolving 25 mg of 1,2-dioleoyl-sn-glycerol (Sigma, US) in 2060 μL of acetone.
# The assay was performed in duplicates in a reaction volume of 100 μL.
# The reaction was started by the addition of 2.5 μL of 1 mg/mL of microsomes (iv) to the mixture of (i), (ii) and (iii), and incubated at 37° C. for 10 min. The reaction was stopped by the addition of 300 μL of Alkaline Ethanol Stop Solution Mix [AESSM; 12.5% of 100% non-denatured ethanol, 10% deionized water, 2.5% 1N NaOH, 75% stop solution (78.4% isopropanol, 19.6% n-heptane, 2% deionized water)] followed by addition of 600 μL of n-heptane. The mixture was vortexed and the triglycerides formed were extracted into the organic heptane phase. 250 μL of the heptane phase was added into 4 mL scintillation cocktail (66.72% toluene, 33.3% TritonX-100, 0.5% PPO, 0.02% POPOP) and counted on a liquid scintillation counter for 1 min. Data was collected and plotted as a function of concentration in nM versus percentage inhibition of hDGAT1 by the compounds of present invention.
row,SMILES,Percentage inhibition of hDGAT1
1,Cc1ccc(Cl)cc1NC(=O)Nc1ccc(-c2cnc(C3CCC(C(=O)O)CC3)s2)cc1 (stereo not shown) [Example 164],++ (>50 % Inhibition)

# Same assay, conditions: read-out: Percentage inhibition of hDGAT1
row,SMILES,inhibition at 1 µM
1,"Cc1ccc(Cl)c(NC(=O)Nc2ccc(-c3cnc(C4CCC(C(=O)O)CC4)s3)cc2)c1 (stereo not shown) [Example 150, 4-(5-(4-(3-(2-Chloro-5-methylphenyl)ureido)phenyl)thiazol-2-yl)cyclohexane carboxylic acid]",> 50%
2,"COc1ccc(NC(=O)Nc2ccc(-c3cnc(C4CCC(C(=O)O)CC4)s3)cc2)c(C)c1 (stereo not shown) [Example 154, 4-(5-(4-(3-(4-Methoxy-2-methylphenyl)ureido)phenyl)thiazol-2-yl)cyclo hexanecarboxylic acid]",> 50%
3,"O=C(Nc1ccc(-c2cnc(C3CCC(C(=O)O)CC3)s2)cc1)Nc1c(Cl)cccc1C(F)(F)F (stereo not shown) [Example 158, 4-(5-(4-(3-(2-Chloro-6-(trifluoromethyl)phenyl)ureido)phenyl)thiazol-2-yl)cyclohexanecarboxylic acid]",> 50%
4,"O=C(Nc1ccc(-c2cnc(C3CCC(C(=O)O)CC3)s2)cc1)Nc1ccc(Cl)cc1C(F)(F)F (stereo not shown) [Example 160, 4-(5-(4-(3-(4-Chloro-2-(trifluoromethyl)phenyl)ureido)phenyl)thiazol-2-yl)cyclohexanecarboxylic acid]",> 50%
5,"O=C(Nc1ccc(-c2cnc(C3CCC(C(=O)O)CC3)s2)cc1)Nc1ccccc1C(F)(F)F (stereo not shown) [Example 166, 4-(5-(4-(3-(2-(Trifluoromethyl)phenyl)ureido)phenyl)thiazol-2-yl)cyclohexane carboxylic acid]",> 50%
6,"O=C(Nc1ccc(-c2cnc(C3CCC(C(=O)O)CC3)s2)cc1)Nc1ccccc1OC(F)(F)F (stereo not shown) [Example 168, 4-(5-(4-(3-(2-(Trifluoromethoxy)phenyl)ureido)phenyl)thiazol-2-yl)cyclo hexanecarboxylic acid]",> 50%
7,"O=C(Nc1ccc(Oc2ccccc2)cc1)Nc1ccc(-c2cnc(C3CCC(C(=O)O)CC3)s2)cc1 (stereo not shown) [Example 170, 4-(5-(4-(3-(4-Phenoxyphenyl)ureido)phenyl)thiazol-2-yl)cyclohexane carboxylic acid]",> 50%
8,"O=C(Nc1ccc(-c2cnc(C3CCC(C(=O)O)CC3)s2)cc1)Nc1c(F)cccc1C(F)(F)F (stereo not shown) [Example 176, 4-(5-(4-(3-(2-Fluoro-6-(trifluoromethyl)phenyl)ureido)phenyl)thiazol-2-yl)cyclohexanecarboxylic acid]",20 to 50%
9,"O=C(Nc1ccc(-c2cnc(C3CCC(C(=O)O)CC3)s2)cc1)Nc1ccc(F)c(F)c1F (stereo not shown) [Example 186, 4-(5-(4-(3-(2,3,4-Trifluorophenyl)ureido)phenyl)thiazol-2-yl)cyclohexane carboxylic acid]",> 50%
10,"O=C(Nc1ccc(-c2cnc(C3CCC(C(=O)O)CC3)s2)cc1)Nc1ccc(Cl)cc1Oc1ccccc1 (stereo not shown) [Example 190, 4-(5-(4-(3-(4-Chloro-2-phenoxyphenyl)ureido)phenyl)thiazol-2-yl)cyclohexane carboxylic acid]",> 50%
11,"CC(C)(C)c1ccc(C(=O)Nc2ccc(-c3cnc(C4CCC(C(=O)O)CC4)s3)cc2)cc1 (stereo not shown) [Example 194, 4-(5-(4-(4-t-Butylbenzamido)phenyl)thiazol-2-yl)cyclohexanecarboxylic acid]",> 50%
12,"O=C(Nc1ccc(-c2cnc(C3CCC(C(=O)O)CC3)s2)cc1)c1ccccc1Cl (stereo not shown) [Example 196, 4-(5-(4-(2-Chlorobenzamido)phenyl)thiazol-2-yl)cyclohexanecarboxylic acid]",20 to 50%
13,"O=C(Nc1ccc(-c2cnc(C3CCC(C(=O)O)CC3)s2)cc1)c1ncc(-c2ccccc2)o1 (stereo not shown) [Example 198, 4-(5-(4-(5-Phenyloxazole-2-carboxamido)phenyl)thiazol-2-yl)cyclohexane carboxylic acid]",> 50%

# More lines, now with the values ahead:
row,inhibition at 1 µM,SMILES
1,> 50%,"O=C(Nc1ccc(-c2cnc(C3CCC(C(=O)O)CC3)s2)cc1)Nc1cccc(Cl)c1F (stereo not shown) [Example 152, 4-(5-(4-(3-(3-Chloro-2-fluorophenyl)ureido)phenyl)thiazol-2-yl)cyclohexane carboxylic acid]"
2,> 50%,"O=C(Nc1ccc(-c2cnc(C3CCC(C(=O)O)CC3)s2)cc1)Nc1ccc2c(c1)OCO2 (stereo not shown) [Example 156, 4-(5-(4-(3-Benzo[d][1,3]-dioxol-5-ylureido)phenyl)thiazol-2-yl)cyclohexane carboxylic acid]"
3,> 50%,"Cc1cccc(Cl)c1NC(=O)Nc1ccc(-c2cnc(C3CCC(C(=O)O)CC3)s2)cc1 (stereo not shown) [Example 162, 4-(5-(4-(3-(2-Chloro-6-methylphenyl)ureido)phenyl)thiazol-2-yl)cyclohexane carboxylic acid]"
4,> 50%,"O=C(Nc1ccc(-c2cnc(C3CCC(C(=O)O)CC3)s2)cc1)Nc1ccc(Cl)cc1F (stereo not shown) [Example 172, 4-(5-(4-(3-(4-Chloro-2-fluorophenyl)ureido)phenyl)thiazol-2-yl)cyclohexane carboxylic acid]"
5,> 50%,"Cc1ccc(F)c(NC(=O)Nc2ccc(-c3cnc(C4CCC(C(=O)O)CC4)s3)cc2)c1 (stereo not shown) [Example 174, 4-(5-(4-(3-(2-Fluoro-5-methylphenyl)ureido)phenyl)thiazol-2-yl)cyclohexane carboxylic acid]"
6,> 50%,"O=C(Nc1ccc(-c2cnc(C3CCC(C(=O)O)CC3)s2)cc1)Nc1cccc(F)c1 (stereo not shown) [Example 178, 4-(5-(4-(3-(3-Fluorophenyl)ureido)phenyl)thiazol-2-yl)cyclohexanecarboxylic acid]"
7,> 50%,"O=C(Nc1ccc(-c2cnc(C3CCC(C(=O)O)CC3)s2)cc1)Nc1ccc(F)c(F)c1 (stereo not shown) [Example 180, 4-(5-(4-(3-(3,4-Difluorophenyl)ureido)phenyl)thiazol-2-yl)cyclohexane carboxylic acid]"
8,> 50%,"O=C(Nc1ccc(-c2cnc(C3CCC(C(=O)O)CC3)s2)cc1)Nc1cc(F)cc(F)c1 (stereo not shown) [Example 182, 4-(5-(4-(3-(3,5-Difluorophenyl)ureido)phenyl)thiazol-2-yl)cyclohexane carboxylic acid]"
9,> 50%,"O=C(Nc1ccc(-c2cnc(C3CCC(C(=O)O)CC3)s2)cc1)Nc1c(F)cccc1F (stereo not shown) [Example 184, 4-(5-(4-(3-(2,6-Difluorophenyl)ureido)phenyl)thiazol-2-yl)cyclohexane carboxylic acid]"
10,> 50%,"O=C(Nc1ccc(-c2cnc(C3CCC(C(=O)O)CC3)s2)cc1)Nc1ccccc1Cl (stereo not shown) [Example 188, 4-(5-(4-(3-(2-Chlorophenyl)ureido)phenyl)thiazol-2-yl)cyclohexane carboxylic acid]"
11,> 50%,"O=C(Nc1ccccc1)Nc1ccc(-c2cnc(C3CCC(C(=O)O)CC3)s2)cc1 (stereo not shown) [Example 192, 4-(5-(4-(3-Phenylureido)phenyl)thiazol-2-yl)cyclohexanecarboxylic acid]"

# From US20130158075A1, “HETEROCYCLIC COMPOUNDS AS DGAT1 INHIBITORS” (PIRAMAL ENTERPRISES LIMITED, priority 2010, published 2013)
